The source of these data is patent US8404708B2, “Dual NK1/NK3 receptor antagonists” (Hoffmann-La Roche Inc., priority 2004, dated 2013).

Molecules are shown by their SMILES. Where two headings read alike, the source gives them in different places.

Test [1] deals with T1, Recombinant human NK3 (hNK3) receptor (Homo sapiens, UniProt P29371).
T1 construct: expressed in transfected cells
T1 sequence (P29371 1-465): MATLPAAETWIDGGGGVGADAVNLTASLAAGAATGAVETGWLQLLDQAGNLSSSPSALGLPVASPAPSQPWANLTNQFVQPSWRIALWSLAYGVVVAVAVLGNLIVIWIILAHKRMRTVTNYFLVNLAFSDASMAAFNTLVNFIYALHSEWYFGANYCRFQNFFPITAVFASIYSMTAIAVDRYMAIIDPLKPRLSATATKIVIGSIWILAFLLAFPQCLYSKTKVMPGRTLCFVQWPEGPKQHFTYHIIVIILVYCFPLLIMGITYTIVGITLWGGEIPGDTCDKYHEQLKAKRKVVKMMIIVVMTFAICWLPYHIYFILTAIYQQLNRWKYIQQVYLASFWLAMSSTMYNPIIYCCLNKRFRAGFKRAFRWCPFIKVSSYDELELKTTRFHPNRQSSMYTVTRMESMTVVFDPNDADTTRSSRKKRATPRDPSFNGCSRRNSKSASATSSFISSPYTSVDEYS
Briefly: NK3 receptor binding, [3H]SR142801 displacement, membrane preparations. The essentials: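 Buffer: Tris-HCl 50 mM pH 7.4, BSA 0.1%, MnCl2 4 mM, phosphoramidon 1 μM. ~2.5 μg membrane/well, 90 min RT. NSB with SB222200 (10 μM). Vacuum filtration over 0.3% PEI-treated GF/C, cold Tris/BSA washes, scintillation count; duplicates, ≥2 experiments.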

A further test has as its target human NK1 receptor (Homo sapiens, UniProt P25103). The test can be described thus: NK1 receptor binding, [3H]substance P displacement, CHO cell membranes.
Setting [2] is: second value of the cell pKi NK1/NK3, hNK3 receptor, [3H]SR142801.
[3] abbreviates: first value of the cell pKi NK1/NK3, human NK1 receptor, [3H]substance P.
Where [4] appears, read: second value of the cell NK1/NK3, read-out: pKi NK3 (converted).
[5] abbreviates: first value of the cell NK1/NK3, read-out: pKi NK1 (converted).

Chain of human NK1 receptor (P25103 whole entry): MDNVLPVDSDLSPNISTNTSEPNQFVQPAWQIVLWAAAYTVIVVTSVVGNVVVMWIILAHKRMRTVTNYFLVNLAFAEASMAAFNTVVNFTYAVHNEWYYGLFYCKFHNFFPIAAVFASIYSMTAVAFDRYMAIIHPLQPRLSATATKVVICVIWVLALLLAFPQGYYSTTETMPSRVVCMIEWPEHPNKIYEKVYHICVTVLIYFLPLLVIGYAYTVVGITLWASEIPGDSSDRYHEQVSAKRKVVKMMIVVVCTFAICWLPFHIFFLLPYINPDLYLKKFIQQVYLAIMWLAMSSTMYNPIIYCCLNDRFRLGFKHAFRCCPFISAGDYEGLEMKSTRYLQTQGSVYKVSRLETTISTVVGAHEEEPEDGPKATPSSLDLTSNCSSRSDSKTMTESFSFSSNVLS

In the case of `Cc1ccccc1-c1cc(N2CCOC[C@H]2CO)ncc1N(C)C(=O)C(C)(C)c1cc(C(F)(F)F)cc(C(F)(F)F)c1` [Example 175], the Ki in test [1] (setting [2]) was 2.14 nM; on human NK1 receptor (setting [3]), 1.62 nM.

As to `Cc1ccccc1-c1cc(N2C[C@H](O)C[C@@H](O)C2)ncc1N(C)C(=O)C(C)(C)c1cc(C(F)(F)F)cc(C(F)(F)F)c1` [Example 179, (3R,5R)-2-(3,5-Bis-trifluoromethyl-phenyl)-N-(3,5-dihydroxy-4′-o-tolyl-3,4,5,6-tetrahydro-2H-[1,2′]bipyridinyl-5′-yl)-N-methyl-isobutyramide], the Ki was 4.07 nM in test [1] (setting [2]) and 1.51 nM on human NK1 receptor (setting [3]).

Take `CN(C(=O)C(C)(C)c1cc(C(F)(F)F)cc(C(F)(F)F)c1)c1cnc(N2C[C@H](O)C[C@@H](O)C2)cc1-c1ccccc1Cl` [Example 180, (3R,5R)-2-(3,5-Bis-trifluoromethyl-phenyl)-N-[4′-(2-chloro-phenyl)-3,5-dihydroxy-3,4,5,6-tetrahydro-2H-[1,2′]bipyridinyl-5′-yl]-N-methyl-isobutyramide]: the Ki in test [1] (setting [2]) was 3.24 nM; on human NK1 receptor (setting [3]) it was 1.62 nM.

For the compound `CN(C(=O)C(C)(C)c1cc(C(F)(F)F)cc(C(F)(F)F)c1)c1cnc(N2C[C@H](O)C[C@H](O)C2)cc1-c1ccccc1Cl` [Example 181], the Ki in test [1] (setting [2]) is 3.39 nM; on human NK1 receptor (setting [3]), 2 nM.

As to `CN(C(=O)C(C)(C)c1cc(C(F)(F)F)cc(C(F)(F)F)c1)c1cnc(N2C[C@H](O)[C@@H](O)C2)cc1-c1ccccc1Cl` [Example 182, (3S,4S)-2-(3,5-Bis-trifluoromethyl-phenyl)-N-[4-(2-chloro-phenyl)-6-(3,4-dihydroxy-pyrrolidin-1-yl)-pyridin-3-yl]-N-methyl-isobutyramide], the Ki in test [1] (setting [2]) is 32.4 nM; on human NK1 receptor (setting [3]), 0.933 nM.

Turning to `Cc1ccccc1-c1cc(N2C[C@H](O)[C@@H](O)C2)ncc1N(C)C(=O)C(C)(C)c1cc(C(F)(F)F)cc(C(F)(F)F)c1` [Example 183, (3S,4S)-2-(3,5-Bis-trifluoromethyl-phenyl)-N-[6-(3,4-dihydroxy-pyrrolidin-1-yl)-4-o-tolyl-pyridin-3-yl]-N-methyl-isobutyramide], the Ki in test [1] (setting [2]) is 26.9 nM; at human NK1 receptor (setting [3]), 1.1 nM.

Take `Cc1ccccc1-c1cc(N2C[C@@H](O)[C@@H](O)C2)ncc1N(C)C(=O)C(C)(C)c1cc(C(F)(F)F)cc(C(F)(F)F)c1` [Example 184, (3R,4S)-2-(3,5-Bis-trifluoromethyl-phenyl)-N-[6-(3,4-dihydroxy-pyrrolidin-1-yl)-4-o-tolyl-pyridin-3-yl]-N-methyl-isobutyramide]: the values for the Ki (in test [1] (setting [2]); at human NK1 receptor (setting [3])) were 20 nM and 1.23 nM, respectively.

In the case of `Cc1cc(F)ccc1-c1cc(N(C)C(CO)CO)ncc1N(C)C(=O)C(C)(C)c1cc(C(F)(F)F)cc(C(F)(F)F)c1` [Example 196, 2-(3,5-Bis-trifluoromethyl-phenyl)-N-{4-(4-fluoro-2-methyl-phenyl)-6-[(2-hydroxy-1-hydroxymethyl-ethyl)-methyl-amino]-pyridin-3-yl}-N-methyl-isobutyramide], the Ki was 4.57 nM in test [1] (setting [2]) and 1.74 nM on human NK1 receptor (setting [3]).

Regarding `Cc1cc(F)ccc1-c1cc(N2[C@H](CO)CC[C@@H]2CO)ncc1N(C)C(=O)C(C)(C)c1cc(C(F)(F)F)cc(C(F)(F)F)c1` [Example 197, (2R,5S)-N-[6-(2,5-Bis-hydroxymethyl-pyrrolidin-1-yl)-4-(4-fluoro-2-methyl-phenyl)-pyridin-3-yl]-2-(3,5-bis-trifluoromethyl-phenyl)-N-methyl-isobutyramide], the Ki in test [1] (setting [2]) was 3.89 nM; on human NK1 receptor (setting [3]), 2.88 nM.

With `Cc1cc(F)ccc1-c1cc(N2[C@H](CO)CC[C@H]2CO)ncc1N(C)C(=O)C(C)(C)c1cc(C(F)(F)F)cc(C(F)(F)F)c1` [Example 198, (2S,5S)-N-[6-(2,5-Bis-hydroxymethyl-pyrrolidin-1-yl)-4-(4-fluoro-2-methyl-phenyl)-pyridin-3-yl]-2-(3,5-bis-trifluoromethyl-phenyl)-N-methyl-isobutyramide], the values for the Ki (in test [1] (setting [2]); on human NK1 receptor (setting [3])) were 1.1 nM and 1.78 nM, respectively.

`Cc1cc(F)ccc1-c1cc(N2[C@@H](CO)CC[C@@H]2CO)ncc1N(C)C(=O)C(C)(C)c1cc(C(F)(F)F)cc(C(F)(F)F)c1` [Example 199, (2R,5R)-N-[6-(2,5-Bis-hydroxymethyl-pyrrolidin-1-yl)-4-(4-fluoro-2-methyl-phenyl)-pyridin-3-yl]-2-(3,5-bis-trifluoromethyl-phenyl)-N-methyl-isobutyramide]: the Ki in test [1] (setting [2]) is 15.5 nM; on human NK1 receptor (setting [3]) it was 2.51 nM.

For the compound `Cc1ccc(-c2cc(N3C[C@H](O)C[C@H]3CO)ncc2N(C)C(=O)C(C)(C)c2cc(C(F)(F)F)cc(C(F)(F)F)c2)cc1` [Example 200, (2S,4R)-2-(3,5-Bis-trifluoromethyl-phenyl)-N-[6-(4-hydroxy-2-hydroxymethyl-pyrrolidin-1-yl)-4-p-tolyl-pyridin-3-yl]-N-methyl-isobutyramide], the Ki is 18.2 nM in test [1] (setting [2]) and 2.34 nM on human NK1 receptor (setting [3]).

`CN(C(=O)C(C)(C)c1cc(C(F)(F)F)cc(C(F)(F)F)c1)c1cnc(N2C[C@H](O)C[C@H]2CO)cc1-c1ccccc1` [Example 201, (2S,4R)-2-(3,5-Bis-trifluoromethyl-phenyl)-N-[6-(4-hydroxy-2-hydroxymethyl-pyrrolidin-1-yl)-4-phenyl-pyridin-3-yl]-N-methyl-isobutyramide]: the Ki was 8.71 nM in test [1] (setting [2]) and 1.48 nM at human NK1 receptor (setting [3]).

As to `CN(C(=O)C(C)(C)c1cc(C(F)(F)F)cc(C(F)(F)F)c1)c1cnc(N2C[C@H](O)C[C@H]2CO)cc1-c1ccc(F)cc1` [Example 202, (2S,4R)-2-(3,5-Bis-trifluoromethyl-phenyl)-N-[4-(4-fluoro-phenyl)-6-(4-hydroxy-2-hydroxymethyl-pyrrolidin-1-yl)-pyridin-3-yl]-N-methyl-isobutyramide], the figures for the Ki (in test [1] (setting [2]); at human NK1 receptor (setting [3])) were 7.41 nM and 1.2 nM, respectively.

In the case of `CN(C(=O)C(C)(C)c1cc(C(F)(F)F)cc(C(F)(F)F)c1)c1cnc(N2C[C@H](O)C[C@H]2CO)cc1-c1ccc(Cl)cc1` [Example 203, (2S,4R)-2-(3,5-Bis-trifluoromethyl-phenyl)-N-[4-(4-chloro-phenyl)-6-(4-hydroxy-2-hydroxymethyl-pyrrolidin-1-yl)-pyridin-3-yl]-N-methyl-isobutyramide], the results for the Ki (in test [1] (setting [2]); at human NK1 receptor (setting [3])) were 10.5 nM and 2.04 nM, respectively.

Consider `CN(C)c1ccc(-c2cc(N3C[C@H](O)C[C@H]3CO)ncc2N(C)C(=O)C(C)(C)c2cc(C(F)(F)F)cc(C(F)(F)F)c2)cc1` [Example 204, (2S,4R)-2-(3,5-Bis-trifluoromethyl-phenyl)-N-[4-(4-dimethylamino-phenyl)-6-(4-hydroxy-2-hydroxymethyl-pyrrolidin-1-yl)-pyridin-3-yl]-N-methyl-isobutyramide], for which the results for the Ki (in test [1] (setting [2]); on human NK1 receptor (setting [3])) were 14.8 nM and 15.1 nM, respectively.

`CN(C(=O)C(C)(C)c1cc(C(F)(F)F)cc(C(F)(F)F)c1)c1cnc(N2C[C@H](O)C[C@H]2CO)cc1-c1cccc(Br)c1` [Example 205, (2S,4R)-2-(3,5-Bis-trifluoromethyl-phenyl)-N-[4-(3-bromo-phenyl)-6-(4-hydroxy-2-hydroxymethyl-pyrrolidin-1-yl)-pyridin-3-yl]-N-methyl-isobutyramide]: the results for the Ki (in test [1] (setting [2]); on human NK1 receptor (setting [3])) were 8.51 nM and 1.95 nM, respectively.

As to `CN(C(=O)C(C)(C)c1cc(C(F)(F)F)cc(C(F)(F)F)c1)c1cnc(N2C[C@H](O)C[C@H]2CO)cc1-c1cccc(Cl)c1` [Example 206, (2S,4R)-2-(3,5-Bis-trifluoromethyl-phenyl)-N-[4-(3-chloro-phenyl)-6-(4-hydroxy-2-hydroxymethyl-pyrrolidin-1-yl)-pyridin-3-yl]-N-methyl-isobutyramide], the Ki in test [1] (setting [2]) was 15.8 nM; on human NK1 receptor (setting [3]), 1.86 nM.

Turning to `CN(C(=O)C(C)(C)c1cc(C(F)(F)F)cc(C(F)(F)F)c1)c1cnc(N2C[C@H](O)C[C@H]2CO)cc1-c1cccc(F)c1` [Example 207, (2S,4R)-2-(3,5-Bis-trifluoromethyl-phenyl)-N-[4-(3-fluoro-phenyl)-6-(4-hydroxy-2-hydroxymethyl-pyrrolidin-1-yl)-pyridin-3-yl]-N-methyl-isobutyramide], the Ki is 4.68 nM in test [1] (setting [4]) and 1.38 nM at human NK1 receptor (setting [5]).

Take `CN(C(=O)C(C)(C)c1cc(C(F)(F)F)cc(C(F)(F)F)c1)c1cnc(N2C[C@H](O)C[C@H]2CO)cc1-c1cc(F)cc(F)c1` [Example 208, (2S,4R)-2-(3,5-Bis-trifluoromethyl-phenyl)-N-[4-(3,5-difluoro-phenyl)-6-(4-hydroxy-2-hydroxymethyl-pyrrolidin-1-yl)-pyridin-3-yl]-N-methyl-isobutyramide]: the Ki in test [1] (setting [4]) was 6.17 nM; at human NK1 receptor (setting [5]) it was 1.35 nM.

For `CN(C(=O)C(C)(C)c1cc(C(F)(F)F)cc(C(F)(F)F)c1)c1cnc(N2C[C@H](O)C[C@H]2CO)cc1-c1ccc(F)c(F)c1` [Example 209, (2S,4R)-2-(3,5-Bis-trifluoromethyl-phenyl)-N-[4-(3,4-difluoro-phenyl)-6-(4-hydroxy-2-hydroxymethyl-pyrrolidin-1-yl)-pyridin-3-yl]-N-methyl-isobutyramide], the Ki in test [1] (setting [4]) was 3.47 nM; at human NK1 receptor (setting [5]), 1.35 nM.
